Counter-ions that a name gives are not always drawn.
Key:
[1] = test system: 3D7 strain of Plasmodium falciparum; test: In vitro activity against 3D7 strain of Plasmodium falciparum ([3H]-hypoxanthine incorporation assay); format: cell-based; details: Erythrocyte, 48 h, P. falciparum 3D7 in human erythrocytes, 2 d, growth inhibition, read-out: IC50: 1 Org. Growth P. falciparum 3D7, 2 d (LPS_00570)
Description: In Vitro Activity Against Plasmodium falciparum a) Against 3D7 Strain of Plasmodium falciparum Inhibition of 3D7 strain parasites was assessed using the [^3H]-hypoxanthine incorporation assay (Desjardins, et al. Antimicrob. Agents Chemother. 1979, 16, 710-718). Briefly, parasites were cultured in human erythrocytes (from the Spanish Red Cross blood bank) using RPMI-1640 culture media (Gibco) supplemented with 0.5% Albumax II (Invitrogen), 2% D-sucrose (Sigma-Aldrich), 0.3% glutamine (Sigma-Aldrich), and 5 mM hypoxanthine (Sigma-Aldrich). Cultures were maintained at 37° C. at an atmosphere of 5% O2, 5% CO2, and […]. To assess inhibition, asynchronous parasite cultures with 0.5% parasitemia and 2% hematocrit were exposed to 3-fold serial dilutions of test compounds for 24 hours in 96 well plate cultures (Costar #3894). After 24 hours, [^3H]-hypoxanthine was added, plates were incubated for an additional 24 hours, and parasites were harvested on glass fiber filters (Wallac #1450-421) using a cell harvester 96 (TOMTEC, Perkin Elmer). Filters were dried on scintillator sheets (MeltiLex A, PerkinElmer #1450-441) to determine incorporation of [^3H]-hypoxanthine. Radioactivity was measured using a microbeta counter (Perkin Elmer). Data are normalized using the incorporation of the positive control (infected erythrocytes without drug). IC50 values were determined using Excel and Grafit 5 software. Values were determined from at least three independent experiments, and standard deviations were calculated.

[2] = test system: W2 strain of Plasmodium falciparum; test: In vitro activity against W2 strain of Plasmodium falciparum (YOYO-1 flow cytometry); format: cell-based; details: Erythrocyte, 48 h, P. falciparum W2 in human erythrocytes, 2 d, growth inhibition, read-out: IC50: 1 Org. Growth P. falciparum W2, 2 d (LPS_00451)
Description: In Vitro Activity Against Plasmodium falciparum
b) Against W2 Strain of Plasmodium falciparum
W2 strain P. falciparum parasites were cultured in human erythrocytes and RPMI-1640 culture media with either 10% human serum or 0.5% Albumax serum substitute under 3% O2, 5% CO2, and 92% N2. Parasites synchronized to ring stage by treatments with 5% D-sorbitol were cultured with serial dilutions of benzoxaboroles from 5 to 10 mM stocks in 96 well microplate cultures including 200 μL of media/well, 2% hematocrit, and 1% parasitemia. At the completion of 48 h incubations, when untreated cultures contained new rings, parasites were fixed with 2% formaldehyde for 48 h, and 5 μL aliquots were transferred to another 96 well plate containing 150 μL/well of staining solution (100 mM NH4Cl, 0.1% Triton X-100, and 1 nM YOYO-1 in PBS). Parasites per erythrocyte were then determined by flow cytometry from plots of forward scatter against fluorescence (excitation 488 nm, emission 520 nm) using a FacSort flow cytometer (Beckton Dickinson) equipped with an AMS Loader (Cytek Development). All values were normalized to percent control activity, and IC50s were calculated using the Prism 3.0 program (GRAPHPAD Software). Goodness of fit was assessed by R^2 values, and meaningful dose-response curves yielded R^2 values >0.95.

SMILES | IC50 [1] [nM] | IC50 [2] [nM]
Cc1c(Oc2cnc(C(=O)N[C@@H](CO)C(C)C)cn2)ccc2c1B(O)OC2 [Example 25, (R)—N-(1-hydroxy-3-methylbutan-2-yl)-5-(1-hydroxy-7-methyl-1,3-dihydrobenzo[c][1,2]oxaborol-6-yloxy)pyrazine-2-carboxamide] | 466 | 149
Cc1c(Oc2cnc(C(=O)N[C@@H](CO)c3ccccc3)cn2)ccc2c1B(O)OC2 [Example 26, (R)—N-(2-hydroxy-1-phenylethyl)-5-(1-hydroxy-7-methyl-1,3-dihydrobenzo[c][1,2]oxaborol-6-yloxy)pyrazine-2-carboxamide] | 161 | 103
Cc1c(Oc2cnc(C(=O)N[C@@H](CO)Cc3ccccc3)cn2)ccc2c1B(O)OC2 [Example 27, (R)—N-(1-hydroxy-3-phenylpropan-2-yl)-5-(1-hydroxy-7-methyl-1,3-dihydrobenzo[c][1,2]oxaborol-6-yloxy)pyrazine-2-carboxamide] | 505 | 115
CCCC[C@H](CO)NC(=O)c1cnc(Oc2ccc3c(c2C)B(O)OC3)cn1 [Example 28, (R)-5-(1-hydroxy-7-methyl-1,3-dihydrobenzo[c][1,2]oxaborol-6-yloxy)-N-(1-hydroxyhexan-2-yl)pyrazine-2-carboxamide] | 215 | 84.9
C=C[C@@H](CO)NC(=O)c1cnc(Oc2ccc3c(c2C)B(O)OC3)cn1 [Example 29, (S)-5-(1-hydroxy-7-methyl-1,3-dihydrobenzo[c][1,2]oxaborol-6-yloxy)-N-(1-hydroxybut-3-en-2-yl)pyrazine-2-carboxamide] | 764 | 828
C=C[C@H](CO)NC(=O)c1cnc(Oc2ccc3c(c2C)B(O)OC3)cn1 [Example 30, (R)-5-(1-hydroxy-7-methyl-1,3-dihydrobenzo[c][1,2]oxaborol-6-yloxy)-N-(1-hydroxybut-3-en-2-yl)pyrazine-2-carboxamide] | 536 | 317
Cc1c(Oc2cnc(C(=O)N[C@H](CO)C3CC3)cn2)ccc2c1B(O)OC2 [Example 31, (S)—N-(1-cyclopropyl-2-hydroxyethyl)-5-(1-hydroxy-7-methyl-1,3-dihydrobenzo[c][1,2]oxaborol-6-yloxy)pyrazine-2-carboxamide] | 1090 | 643
COC[C@H](CO)NC(=O)c1cnc(Oc2ccc3c(c2C)B(O)OC3)cn1 [Example 32, (S)—N-(1-hydroxy-3-methoxypropan-2-yl)-5-((1-hydroxy-7-methyl-1,3-dihydrobenzo[c][1,2]oxaborol-6-yl)oxy)pyrazine-2-carboxamide] | 796 | 512
Cc1c(Oc2cnc(C(=O)N[C@@H](CO)CC(F)(F)F)cn2)ccc2c1B(O)OC2 [Example 33, (R)-5-(1-hydroxy-7-methyl-1,3-dihydrobenzo[c][1,2]oxaborol-6-yloxy)-N-(4,4,4-trifluoro-1-hydroxybutan-2-yl)pyrazine-2-carboxamide] | 149 | 82.2
Cc1c(Oc2cnc(C(=O)N[C@H](CO)CC(F)(F)F)cn2)ccc2c1B(O)OC2 [Example 34, (S)-5-(1-hydroxy-7-methyl-1,3-dihydrobenzo[c][1,2]oxaborol-6-yloxy)-N-(4,4,4-trifluoro-1-hydroxybutan-2-yl)pyrazine-2-carboxamide] | 452 | 350
CSC[C@H](CO)NC(=O)c1cnc(Oc2ccc3c(c2C)B(O)OC3)cn1 [Example 35, (S)—N-(1-hydroxy-3-(methylthio)propan-2-yl)-5-((1-hydroxy-7-methyl-1,3-dihydrobenzo[c][1,2]oxaborol-6-yl)oxy)pyrazine-2-carboxamide] | 73.7 | 370
Cc1c(Oc2cnc(C(=O)N[C@@H](CO)CS(C)(=O)=O)cn2)ccc2c1B(O)OC2 [Example 36, (S)—N-(1-hydroxy-3-(methylsulfonyl)propan-2-yl)-5-(1-hydroxy-7-methyl-1,3-dihydrobenzo[c][1,2]oxaborol-6-yloxy)pyrazine-2-carboxamide] | 472 | 201
Cc1c(Oc2cnc(C(=O)N[C@@H](CO)CCC(F)(F)F)cn2)ccc2c1B(O)OC2 [Example 37, (R)-5-(1-hydroxy-7-methyl-1,3-dihydrobenzo[c][1,2]oxaborol-6-yloxy)-N-(5,5,5-trifluoro-1-hydroxypentan-2-yl)pyrazine-2-carboxamide] | 480 | 230
Cc1c(Oc2cnc(C(=O)N[C@H](CO)CCC(F)(F)F)cn2)ccc2c1B(O)OC2 [Example 38, (S)-5-(1-hydroxy-7-methyl-1,3-dihydrobenzo[c][1,2]oxaborol-6-yloxy)-N-(5,5,5-trifluoro-1-hydroxypentan-2-yl)pyrazine-2-carboxamide] | 959 | 352
Cc1c(Oc2cnc(C(=O)NC(C)C(C)O)cn2)ccc2c1B(O)OC2 (stereo not drawn) [Example 39, 5-(1-hydroxy-7-methyl-1,3-dihydrobenzo[c][1,2]oxaborol-6-yloxy)-N-(3-hydroxybutan-2-yl)pyrazine-2-carboxamide] | 1460 | 513
Cc1c(Oc2cnc(C(=O)N3CC(C)(O)C3)cn2)ccc2c1B(O)OC2 [Example 41, (3-hydroxy-3-methylazetidin-1-yl) (5-((1-hydroxy-7-methyl-1,3-dihydrobenzo[c][1,2]oxaborol-6-yl)oxy)pyrazin-2-yl)methanone] | 70.6 | 32.6
Cc1c(Oc2cnc(C(=O)N[C@@H]3CCC[C@H]3O)cn2)ccc2c1B(O)OC2 [Example 42, 5-((1-hydroxy-7-methyl-1,3-dihydrobenzo[c][1,2]oxaborol-6-yl)oxy)-N-((1R,2R)-2-hydroxycyclopentyl)pyrazine-2-carboxamide] | 245 | 133
CCC[C@@H](NC(=O)c1cnc(Oc2ccc3c(c2C)B(O)OC3)cn1)C(C)(C)O [Example 43, (R)—N-(2-hydroxy-2-methylhexan-3-yl)-5-((1-hydroxy-7-methyl-1,3-dihydrobenzo[c][1,2]oxaborol-6-yl)oxy)pyrazine-2-carboxamide] | 553 | 260
CCC[C@H](NC(=O)c1cnc(Oc2ccc3c(c2C)B(O)OC3)cn1)C(C)(C)O [Example 44, (S)—N-(2-hydroxy-2-methylhexan-3-yl)-5-(1-hydroxy-7-methyl-1,3-dihydrobenzo[c][1,2]oxaborol-6-yloxy)pyrazine-2-carboxamide] | 217 | 129
CC[C@@H](NC(=O)c1cnc(Oc2ccc3c(c2C)B(O)OC3)cn1)C(C)(C)O [Example 45, (R)—N-(2-hydroxy-2-methylpentan-3-yl)-5-(1-hydroxy-7-methyl-1,3-dihydrobenzo[c][1,2]oxaborol-6-yloxy)pyrazine-2-carboxamide] | 222 | 91.8
Cc1c(Oc2cnc(C(=O)N[C@H]3CCC[C@@H]3O)cn2)ccc2c1B(O)OC2 [Example 46, 5-(1-hydroxy-7-methyl-1,3-dihydrobenzo[c][1,2]oxaborol-6-yloxy)-N-((1S,2S)-2-hydroxycyclopentyl)pyrazine-2-carboxamide] | 537 | 149
Cc1c(Oc2cnc(C(=O)N[C@@H](C)C(C)(C)O)cn2)ccc2c1B(O)OC2 [Example 47, (S)—N-(3-hydroxy-3-methylbutan-2-yl)-5-(1-hydroxy-7-methyl-1,3-dihydrobenzo[c][1,2]oxaborol-6-yloxy)pyrazine-2-carboxamide] | 327 | 202
Cc1c(Oc2cnc(C(=O)N[C@H](C)C(C)(C)O)cn2)ccc2c1B(O)OC2 [Example 48, (R)—N-(3-hydroxy-3-methylbutan-2-yl)-5-(1-hydroxy-7-methyl-1,3-dihydrobenzo[c][1,2]oxaborol-6-yloxy)pyrazine-2-carboxamide] | 374 | 265
Cc1c(Oc2cnc(C(=O)N3CCNC[C@H]3CO)cn2)ccc2c1B(O)OC2 [Example 50, (S)-(5-(1-hydroxy-7-methyl-1,3-dihydrobenzo[c][1,2]oxaborol-6-yloxy)pyrazin-2-yl) (2-(hydroxymethyl)piperazin-1-yl)methanone Hydrochloric Acid Salt] | 171 | 98.2
